From patent US6667336B2, “GlyT-1 inhibitors” (NPS Allelix Corp., priority 2002, dated 2003)
Several values for one entry are separate records, joined by “and”; a condition that tells them apart may be missing. Identical values can stand only once. Marks after values point to notes of the source that are not given here.

System: male CD-1 mice
Test: 5 day chronic oral dosing toxicity study in mice (clinical signs)
Format: in vivo
Set-up: key to Clinical signs (observation code), Day 1, 24 hours / Clinical signs (observation code), Day 2, 24 hours / Clinical signs (observation code), Day 3, 24 hours / Clinical signs (observation code), Day 4, 24 hours / Clinical signs (observation code), Day 5, 24 hours / Clinical signs (observation code), Day 1, 4 hours / Clinical signs (observation code), Day 2, 4 hours / Clinical signs (observation code), Day 3, 4 hours / Clinical signs (observation code), Day 4, 4 hours / Clinical signs (observation code), Day 5, 4 hours: 0: Appeared Normal; 1: Activity (inc./dec.); 2: Sedation/Lethargy; 3: Piloerection; 4: Stereotypy; 5: Soft Stool; 6: Chromodacryorrhea; 7: Epistaxis; 8: Cyanosis; 9: Flaccidity; 10: Respiration; 11: Hunched Posture; 12: Enophthalmia; 13: Exophthalmia; 14: Palpabral Ptosis; 15: Loss of Righting; 16: Chromaturia; 17: Salivation; 18: Lacrimation; 19: Miosis; 20: Mydriasis; 21: Rigidity; 22: Ataxia; 23: Tremors; 24: Convulsions; 25: Catalepsy; 26: Lateral Recumbency; 27: Death
Settings: 40 mg/kg/day PO, male CD-1 mice, one line per animal
Procedure: This example illustrated a 5 day chronic oral dosing toxicity study with GlyT1 inhibitors. […] Behavioral observations (clinical signs) and body weights were recorded daily for all compounds tested. Male CD-1 mice were purchased from Charles River Labs (Kingston, N.Y.). The animals weighed between 20-25 grams upon arrival. Animals were acclimatized in a temperature/humidity (72° ±5° F./50%±5%) controlled vivarium, with a common 12 hour light/dark cycle (Lights on 0700 hrs) for 5 days prior to test. All animals were allowed food (Purina Labdiete® Rodent chow # 5001) and water (supplied by Elizabethtown Water Company) ad libitum during the acclimation period and throughout the study. On the day prior to test initiation animals were randomly assigned to groups: All animals chosen for test weighed at least 20 grams and appeared in good condition. Each animal was dosed once daily for 5 days. Animals remained on site for a 3 day recovery period following the chronic dosing period.
A stock concentration of each test compound was prepared fresh on the day of study initiation. Aliquots were diluted to the needed concentrations for daily dosing. Stock solutions were kept in a refrigerator when not in use. Each compound was dissolved in a small amount of distilled water. One equivalent of sodium hydroxide (2 N) may have been added to aid in dissolution of each test agent. Vehicle was then added quantum sufficiat to give the final volume. Final volumes were adjusted to reflect percent free base when appropriate. The vehicle used in this experiment was Hydroxypropyl-β-cyclodextrine (HPCD) Acros, lot 011849601, dissolved in distilled water to form a 10% weight/volume concentration. The pH was adjusted, using sodium hydroxide (2 N), to equal that of the test agents (usually between 8 to 10). All prepared test compounds were either in solution, and clear, or in suspension, and slightly cloudy. Suspensions were mixed immediately prior to use.
All animals were administered either test compound or vehicle Per Os (PO) via 21 gauge gavage needles, in volumes of 10.0 ml/kg. Daily body weights were used to determine individual dosing volumes. All test compounds were weighed on a Denver Instruments analytical balance (model # A-250). Animals were weighed on a top loading Ohaus portable balance model # LS2000.
Animals were assessed for overt behaviors (clinical signs) immediately following administration of test agents, then again at 4 and 24 hours. Animals were assessed for 27 separate clinical signs:
Toxicity data obtained through the assay as described above is provided in Tables 1 to 14 for Compounds Gi to Gxiv inclusive. The animals were observed immediately following administration and again at 4 hours and 24 hours. Observations are reported using the code number from the following chart: […]

SMILES	Clinical signs (observation code), Day 1, 24 hours	Clinical signs (observation code), Day 2, 24 hours	Clinical signs (observation code), Day 3, 24 hours	Clinical signs (observation code), Day 4, 24 hours	Clinical signs (observation code), Day 1, 4 hours	Clinical signs (observation code), Day 2, 4 hours	Clinical signs (observation code), Day 3, 4 hours	Clinical signs (observation code), Day 4, 4 hours	Clinical signs (observation code), Day 5, 4 hours	Clinical signs (observation code), Day 5, 24 hours
CN(C/C=C(\c1ccccc1)c1ccc(-c2ccsc2)cc1)CC(=O)O [Compound I, reference compound]	0	0	0	0						
CN(C/C=C(/c1ccc(-c2ccsc2)cc1)c1ccsc1)CC(=O)O [Compound G(ii), (Z)-N-(1-(4-(3-Thienyl)phenyl)-1-(3-thienyl)prop-1-en-3-yl)sarcosine]	0	0	0	0	0	0 (2×) and 1	0	0	0 and 14	0
COc1cccc(-c2ccc(/C(=C/CN(C)CC(=O)O)c3ccsc3)cc2)c1 [Compound G(v), (Z)-N-(1-(4-(3-Methoxyphenyl)phenyl)-1-(3-thienyl)prop-1-en-3-yl)sarcosine]	0	0	0	0	0	0	0	0	0	0
Cc1cccc(-c2ccc(/C(=C/CN(C)CC(=O)O)c3ccsc3)cc2)c1 [Compound G(vi), (Z)-N-(1-(4-(3-Methylphenyl)phenyl)-1-(3-thienyl)prop-1-en-3-yl)sarcosine]	0	0	0	0	0	0	0	0	0	0
Cc1cscc1/C(=C\CN(C)CC(=O)O)c1ccc(-c2ccsc2)cc1 [Compound G(x), (Z)-N-(1-(4-(3-Thienyl)phenyl)-1-(3-(4-methylthienyl))prop-1-en-3-yl)sarcosine]	0	0	0	0	0	0	0	0	0	
Cc1cccc(-c2ccc(/C(=C/CN(C)CC(=O)O)c3sccc3C)cc2)c1 [Compound G(xiii), (Z)-N-(1-(4-(3-Methylphenyl)phenyl)-1-(2-(3-methylthienyl))prop-1-en-3-yl)sarcosine]	0	0	0	0	0	0	0	0	0	
Cc1cscc1/C(=C\CN(C)CC(=O)O)c1ccc(-c2cccc(C(F)(F)F)c2)cc1 [Compound G(xi), (Z)-N-(1-(4-(3-(Trifluoromethyl)phenyl)phenyl)-1-(3-(4-methylthienyl))prop-1-en-3-yl)sarcosine]	0	0	0	0	0	0	0	0	0	
CN(C/C=C(/c1ccc(-c2cccc(OC(F)(F)F)c2)cc1)c1ccsc1)CC(=O)O [Compound G(vii), (Z)-N-(1-(4-(3-(Trifluoromethoxy)phenyl)phenyl)-1-(3-thienyl)prop-1-en-3-yl)sarcosine]	0	0	0	0	0	0	0	0	0	0
Cc1ccccc1/C(=C\CN(C)CC(=O)O)c1ccc(-c2ccsc2)cc1 [Compound G(xiv), (Z)-N-(1-(4-(3-Thienyl)phenyl)-1-(2-methylphenyl)prop-1-en-3-yl)sarcosine]	0	0	0	0	0	0	0	0	0	0
CN(C/C=C(/c1ccc(-c2ccsc2)cc1)c1cccs1)CC(=O)O [Compound G(ix), (Z)-N-(1-(4-(3-Thienyl)phenyl)-1-(2-thienyl)prop-1-en-3-yl)sarcosine]	0	0	0	0	0	0	0	0	0	0
CN(C/C=C(/c1ccc(-c2cccc(C(F)(F)F)c2)cc1)c1ccc(Cl)s1)CC(=O)O [Compound K, reference compound]	27*				1 and 0 (2×)					
COc1cccc(-c2ccc(/C(=C/CN(C)CC(=O)O)c3cscc3C)cc2)c1 [Compound G(xii), (Z)-N-(1-(4-(3-Methoxyphenyl)phenyl)-1-(3-(4-methylthienyl))prop-1-en-3-yl)sarcosine]	0	0	0	0	0	0	0	0	0	

Same assay, conditions: 5 day oral dosing in mice, tables 1-18

SMILES	Toxicity profile in comparison (compounds of formula 1 vs other GlyT1 inhibitors of similar potency)
CN(C/C=C(\c1ccccc1)c1ccc(-c2ccsc2)cc1)CC(=O)O [Compound I, reference compound]	higher toxicity profile
CC(C)c1ccc(/C(=C/CN(C)CC(=O)O)c2ccsc2)cc1 [Compound H, reference compound]	higher toxicity profile
CN(C/C=C(/c1ccc(-c2cccc(C(F)(F)F)c2)cc1)c1ccc(Cl)s1)CC(=O)O [Compound K, reference compound]	higher toxicity profile
